The record followed here is article PMC10704959 (Biochemistry, 2023).

The target of the assay is MoLOX (Pyricularia oryzae, UniProt G4NAP4). Particulars: read-out: KMμM.
MoLOX, sequence (G4NAP4 17-619 limits assumed): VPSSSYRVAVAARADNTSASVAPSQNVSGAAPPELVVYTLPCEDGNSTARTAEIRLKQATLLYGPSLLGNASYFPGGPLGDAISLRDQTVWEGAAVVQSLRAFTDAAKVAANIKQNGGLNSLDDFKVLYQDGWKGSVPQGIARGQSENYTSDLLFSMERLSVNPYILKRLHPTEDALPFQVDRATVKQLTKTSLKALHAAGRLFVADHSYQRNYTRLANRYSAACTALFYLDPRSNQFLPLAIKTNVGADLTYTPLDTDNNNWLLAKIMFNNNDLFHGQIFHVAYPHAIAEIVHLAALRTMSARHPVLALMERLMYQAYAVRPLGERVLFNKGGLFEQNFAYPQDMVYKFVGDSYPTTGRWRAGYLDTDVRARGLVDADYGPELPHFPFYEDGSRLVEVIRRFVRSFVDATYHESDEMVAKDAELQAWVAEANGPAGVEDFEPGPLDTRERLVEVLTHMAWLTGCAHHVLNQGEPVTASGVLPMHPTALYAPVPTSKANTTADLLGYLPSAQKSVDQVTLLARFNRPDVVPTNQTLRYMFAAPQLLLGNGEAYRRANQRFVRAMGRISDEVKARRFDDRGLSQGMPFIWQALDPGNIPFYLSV

Take `CCCCC/C=C\C/C=C\CCCCCCCC(=O)O` [LA, linoleic acid]: the Km worked out at 14 ± 2 µM.
